Source: US12617831B2 (UNIVERSITE D'ANGERS, priority 2019, dated 2026)

Legend:
[1] = test system: ovariectomy-induced bone loss in mice; assay: Trabecular bone microarchitecture, fifth lumbar vertebra, ovariectomized mice; assay type: in vivo; details: OVX mice, L5, 25 nmoles/kg/day, vs vehicle
Procedure: At 16 weeks of age, ALZET osmotic pumps (model number 2006, Durect Corp., Cupertino, CA) filled with the below saline or peptide were implanted subcutaneously between the two scapula under general anesthesia in 32 mice. Successful filling of pumps was verified by weighting the pump before and after filling. At 20 weeks of age, ALZET osmotic pumps were replaced by similar pumps to ensure delivery for four new weeks. […] This dose and regimen of zoledronic acid was equivalent to the 5 mg infusion approved for the treatment of post-menopausal osteoporosis in humans. Analyses of vertebral bodies of the fifth lumbar vertebra (L5) were performed with a Nanotom nanotomograph (Phoenix, GE, USA) operated at 85 kV, 220 μA, 1000 ms integration time. The isotropic pixel size was fixed at 4 μm, the rotation step at 0.25° and exposure was done with a 0.1 mm copper filter. Each 3D reconstruction image dataset was binarized using global thresholding. Trabecular volume of interest was computerized on coronal sections of the L5 vertebral body. Trabecular VOI was spread over the entire vertebral body excluding the first and last 80 μm from the anterior and posterior cortical wall. All microCT/NanoCT parameters were determined according to guidelines and nomenclature proposed by the American Society for Bone and Mineral Research (Bouxsein et al., 2010).

[2] = molecular target: T1, human GLP-2r (Homo sapiens, UniProt O95838); assay: Cyclic AMP assay (FRET, H74 probe), HEK-293 transfected with human GLP-2r; assay type: cell-based; details: HEK 293 transfected only with human GLP-2r, 10^-9 M, 30 min (FIG. 17)
T1 construct: host or cells: HEK-293
T1 sequence (O95838 1-553): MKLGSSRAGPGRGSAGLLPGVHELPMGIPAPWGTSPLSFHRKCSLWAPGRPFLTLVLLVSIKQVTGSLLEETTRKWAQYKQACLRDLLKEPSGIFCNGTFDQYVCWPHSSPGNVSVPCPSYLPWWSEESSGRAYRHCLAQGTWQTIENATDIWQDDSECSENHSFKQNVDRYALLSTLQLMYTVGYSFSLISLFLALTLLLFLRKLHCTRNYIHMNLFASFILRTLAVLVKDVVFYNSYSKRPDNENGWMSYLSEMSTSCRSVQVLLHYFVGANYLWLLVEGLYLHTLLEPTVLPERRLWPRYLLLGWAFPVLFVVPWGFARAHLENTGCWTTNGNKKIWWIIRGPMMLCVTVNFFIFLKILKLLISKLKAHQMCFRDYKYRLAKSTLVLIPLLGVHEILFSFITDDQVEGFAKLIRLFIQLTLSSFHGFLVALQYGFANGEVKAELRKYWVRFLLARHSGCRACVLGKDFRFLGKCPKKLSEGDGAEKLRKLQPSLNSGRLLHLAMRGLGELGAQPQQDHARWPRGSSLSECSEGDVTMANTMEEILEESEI
Procedure: (§1) Human HEK-293 cells were plated at a density of 2×10^5 cells/cm^2 in 4 well microslides (ibidi GmbH, Martinsried, Germany). […] Jalink (Netherland Cancer Institute, Amsterdam, Netherland). […] The image acquisition was performed with a 63 X, 1.4 N.A. oil immersion objective and a Hybrid® detector (Leica) and images were collected after 30 minutes. Donor excitation was made with a 458 nm Ar laser, donor emission was collected between 460-505 nm and acceptor emission between 520-600 nm by setting the SP8 spectrometer accordingly. FRET was expressed as the ratio between donor and acceptor signals.

[3] = test system: human GIPr and the human GLP-2r; assay: Cyclic AMP assay (FRET, H74 probe), HEK-293 co-transfected with human GIPr and human GLP-2r; assay type: cell-based; details: 10^-9 M
Procedure: as §1

Q: For `CC[C@H](C)[C@H](NC(=O)[C@H](CO)NC(=O)[C@H](Cc1ccccc1)NC(=O)[C@H](CC(=O)O)NC(=O)[C@H](CO)NC(=O)CNC(=O)[C@H](Cc1ccccc1)NC(=O)[C@H](CO)NC(=O)CNC(=O)[C@H](CCC(=O)O)NC(=O)CNC(=O)[C@@H](N)Cc1c[nH]cn1)C(=O)N[C@@H](C)C(=O)N[C@@H](CC(C)C)C(=O)N[C@@H](CC(=O)O)C(=O)N[C@@H](CCCCN)C(=O)N[C@@H](CC(C)C)C(=O)N[C@@H](C)C(=O)N[C@@H](C)C(=O)N[C@@H](CCCNC(=N)N)C(=O)N[C@@H](CC(=O)O)C(=O)N[C@@H](Cc1ccccc1)C(=O)N[C@H](C(=O)N[C@@H](CC(N)=O)C(=O)N[C@@H](Cc1c[nH]c2ccccc12)C(=O)N[C@@H](CC(C)C)C(=O)N[C@@H](CC(C)C)C(=O)N[C@@H](CCC(N)=O)C(=O)N[C@H](C(=O)N[C@@H](CCCCN)C(N)=O)[C@@H](C)O)C(C)C` [GL-0007], which “reduction in trabecular spacing” value [1] is on record?
A: Its value is 17%.

Q: Which results are given for `CC[C@H](C)[C@H](NC(=O)[C@H](CO)NC(=O)[C@H](CCSC)NC(=O)[C@H](CC(=O)O)NC(=O)[C@H](CO)NC(=O)CNC(=O)[C@H](Cc1ccccc1)NC(=O)[C@H](CO)NC(=O)CNC(=O)[C@H](CCC(=O)O)NC(=O)CNC(=O)[C@@H](N)Cc1c[nH]cn1)C(=O)N[C@@H](C)C(=O)N[C@@H](CC(C)C)C(=O)N[C@@H](CC(=O)O)C(=O)N[C@@H](CCCCN)C(=O)N[C@@H](CC(C)C)C(=O)N[C@@H](C)C(=O)N[C@@H](C)C(=O)N[C@@H](CCCNC(=N)N)C(=O)N[C@@H](CC(=O)O)C(=O)N[C@@H](Cc1ccccc1)C(=O)N[C@H](C(=O)N[C@@H](CC(N)=O)C(=O)N[C@@H](Cc1c[nH]c2ccccc12)C(=O)N[C@@H](CC(C)C)C(=O)N[C@@H](CC(C)C)C(=O)N[C@@H](CCC(N)=O)C(=O)N[C@H](C(=O)N[C@@H](CCCCN)C(=O)N[C@H](C(=O)N[C@H](C(=O)N[C@@H](CC(=O)O)C(=O)O)[C@@H](C)O)[C@@H](C)CC)[C@@H](C)O)C(C)C` [GL-0001]?
A: intracellular levels of cAMP [2]: increased intracellular levels of cAMP; intracellular levels of cAMP ([3]; HEK 293 co-transfected with human GIPr and human GLP-2r, 30 min (FIG. 18)): increased intracellular levels of cAMP; magnitude of cAMP rise versus native peptides ([3]; co-transfected HEK 293 cells): greater with GL-0001 than with each native peptide
